Three compounds from patent US20240228556A9, “NOVEL CANINE ODORANT BINDING PROTEINS” (SPECIALITES PET FOOD, priority 2021, published 2024) can be followed below.

Positions count from the first letter of the chain named.

One assay has as its target T1, CfamOBP2 (Canis lupus familiaris, UniProt O18874).
T1 construct: His tag (from pQE31 vector) (N); made in house; host or cells: E. coli M15 (plasmid pQE31)
T1 sequence (O18874 19-180): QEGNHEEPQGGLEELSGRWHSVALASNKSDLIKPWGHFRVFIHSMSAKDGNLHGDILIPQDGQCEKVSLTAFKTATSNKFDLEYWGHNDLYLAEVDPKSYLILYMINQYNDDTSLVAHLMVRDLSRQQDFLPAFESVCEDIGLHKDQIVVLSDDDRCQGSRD
Put plainly: Fluorescence competitive binding assay (NPN displacement). Particulars: 2 μM OBP, 4 μM NPN, 20° C., pH 7.5, odorant 0.5-20 μM. On the procedure: (§1) Binding experiments were performed at 20° C. on a spectrofluorometer (Cary-Eclipse (Agilent, USA)) equipped with magnetic stirrers and a Peltier control temperature unit. The fluorescent probes: 1-N-phenylnaphthylamine (NPN) (Sigma, USA), 8-anilinonaphthalene-1-sulfonic acid (1,8-ANS) (Sigma, USA), and SYPRO™ orange (ThermoFischer, France) were excited at 337 nm, 372 nm and 490 nm respectively. Emission spectra were recorded between 350 and 500 nm for NPN; 400 and 600 nm for 1,8-ANS and 510 and 700 nm for SYPRO orange. Fluorescent probe binding experiments were performed in a 2 mL cuvette of 1 cm path length containing 2 μM OBPs in 50 mM potassium phosphate buffer at pH 7.5. The fluorescent probes were prepared in 100% MeOH at 0.1, 1, 10 and 100 mM. The concentration of the different fluorescent probes was increased into the 1 mL solution containing CfamOBPs until the adding allow to reach a fluorescence maximum of emission intensity. The binding curves were then traced using SigmaPlot 12.5 software.
(§2) Ligand competitive binding experiments were performed in cuvettes containing 2 μM OBPs, 10 μM fluorescent probe for CfamOBP1 and its variant (Seq ID No 14) and CfamOBP3, 4 μM fluorescent probe for CfamOBP2 and its variant (Seq ID No 15) and 1.25× fluorescent probe for CfamOBP4, in 50 mM potassium phosphate buffer at pH 7.5.
(§3) Odorants were prepared in 100% MeOH and aliquots were added to final concentrations of 0.5-20 μM. The experiments were performed in triplicate. The obtained data were then traced and analysed using SigmaPlot 12.5 software.

The target of assay [1] is T2, CfamOBP2-K83 (variant of Seq ID No 15) (Canis lupus familiaris, UniProt O18874, E83K).
T2 construct: His tag (from pQE31 vector) (N); made in house; host or cells: E. coli M15 (plasmid pQE31)
T2 sequence (O18874 19-180 E83K): T1 sequence (O18874 19-180) with E65K
Described as above. Particulars: 2 μM OBP, 4 μM NPN, 20° C., pH 7.5, odorant 0.5-20 μM. On the procedure: as §1, §2, §3

A further assay addresses T3, CfamOBP1 (Canis lupus familiaris, UniProt O18873).
T3 construct: His tag (from pQE31 vector) (N); made in house; host or cells: E. coli M15 (plasmid pQE31)
Put plainly: Fluorescence competitive binding assay (1,8-ANS displacement). Particulars: 2 μM OBP, 10 μM 1,8-ANS, 20° C., pH 7.5, odorant 0.5-20 μM. On the procedure: as §1, with “software. […]” for “software.”
(§4) Odorants were prepared in 100% MeOH and aliquots were added to final concentrations of 0.5-20 μM. […] The obtained data were then traced and analysed using SigmaPlot 12.5 software.

In assay [2] the target is T4, CfamOBP1-L52 (variant of Seq ID No 14) (Canis lupus familiaris, UniProt O18873, S52L).
T4 construct: His tag (from pQE31 vector) (N); made in house; host or cells: E. coli M15 (plasmid pQE31)
T4 sequence (O18873 19-174 S52L): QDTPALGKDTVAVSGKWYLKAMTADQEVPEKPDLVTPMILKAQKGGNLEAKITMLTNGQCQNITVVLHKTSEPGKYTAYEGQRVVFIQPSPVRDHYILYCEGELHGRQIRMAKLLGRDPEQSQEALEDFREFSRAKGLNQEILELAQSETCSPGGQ
The assay is described as above. Particulars: 2 μM OBP, 10 μM 1,8-ANS, 20° C., pH 7.5, odorant 0.5-20 μM. The protocol:
as §1, with “software. […]” for “software.”
as §4

The target in a further assay is T5, CfamOBP3 (Canis lupus familiaris, UniProt H2B3G5).
T5 construct: His tag (from pQE31 vector) (N); made in house; host or cells: E. coli M15 (plasmid pQE31)
T5 sequence (H2B3G5 16-190): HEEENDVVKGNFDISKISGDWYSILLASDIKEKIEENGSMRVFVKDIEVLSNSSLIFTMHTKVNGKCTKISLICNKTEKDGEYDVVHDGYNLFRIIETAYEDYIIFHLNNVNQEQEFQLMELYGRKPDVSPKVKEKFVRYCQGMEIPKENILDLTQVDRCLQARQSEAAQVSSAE
Put plainly: Fluorescence competitive binding assay (NPN displacement). Particulars: 2 μM OBP, 10 μM NPN, 20° C., pH 7.5, odorant 0.5-20 μM. On the procedure:
as §1, §2, §3

Assay [3] addresses T6, CfamOBP3-102Y (mutant of Seq ID No 35) (Canis lupus familiaris, UniProt H2B3G5, H102Y).
T6 construct: His tag (MRGSHHHHHH leader of pQE31, then TDP from the BamHI site) (N); made in house; host or cells: E. coli M15 (plasmid pQE31)
T6 sequence (H2B3G5 16-190 H102Y): T5 sequence (H2B3G5 16-190) with H87Y
Put plainly: Isothermal titration calorimetry. Particulars: ITC at 25° C., 25 μM protein, 250 μM odorant, pH 7.5; mutant compared with CfamOBP3. Type of assay: binding. On the procedure: Titration experiments were carried at 25° C. using isothermal titration microcalorimeter VP-ITC system (Malvern Instruments, Malvern, UK). 100 mM odorant solution in MeOH were diluted to 250 μM into 100 mM potassium phosphate buffer, pH 7.5 and loaded into the syringe. Protein solutions were prepared at 25 μM in the phosphate buffer and degassed directly prior to experiment and injected into the measure cell. Injections of 10 μL ligand solution into the protein containing cell were performed at time intervals of 210 s with a total of 25 injections. Analysis of the experimental data was performed using the Origin 5.0 program (Malvern Instruments, Malvern, UK) and fitted by a model of one binding site. Binding parameters such as stoichiometry (n) and the association constant (KA) were determined by this fitting.
A general note: Isothermal titration calorimetry measures the heat released or taken up as one component is titrated into another.

T3 sequence (O18873 19-174): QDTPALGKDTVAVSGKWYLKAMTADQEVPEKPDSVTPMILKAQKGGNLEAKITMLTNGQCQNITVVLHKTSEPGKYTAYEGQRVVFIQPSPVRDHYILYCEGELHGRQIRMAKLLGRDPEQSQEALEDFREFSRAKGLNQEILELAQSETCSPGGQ

With `CC(C)CCCC(C)CCO` (stereo not drawn) [DMO, 3,7-dimethyl-1-octanol], the “displacement of the fluorescent probe” value (on CfamOBP2; in assay [1]) was “able to displace the probes” throughout.

In the case of `CC(C)=CCCC(C)CC=O` (stereo not drawn) [citronellal], the “displacement of the fluorescent probe” value (on CfamOBP1; in assay [2]) was “able to displace the probes” in each case.

As to `COc1nccnc1CC(C)C` [IBMP, 2-isobutyl-3-methoxypyrazine], the “displacement of the fluorescent probe” value on CfamOBP3 was “able to displace the probes”. The “change of Ka value (affinity) versus CfamOBP3” value in assay [3] was “eight fold increase”.
